Experiments:
cornified envelope (CE) = test: Production of cornified envelope (CE) in NHEK cells; assay type: cell-based, human; details: 1 mM, 5 days, control 0.63 ± 0.07
Procedure: The following experiment was conducted to examine the effect of ascorbic acid 2-glucoside on the production of CE in a keratinous layer. As a model for typical normal human epidermal cells, normal human epidermal keratinocytes from neonatal foreskin, commercialized by Kurabo Industries Ltd., Osaka, Japan, and abbreviated as “NHEK cells”, hereinafter, were suspended in EpiLife medium (pH 7.4), commercialized by Invitrogen Corporation, Calif., USA, and called “EpiLife medium”, hereinafter, inoculated to 12-well microplates at a cell density of 1×10^5 cells/well, and cultured under the conditions of 37° C. and 5% v/v CO2 overnight. Thereafter, “AA2G”, a product name of a particulate composition containing anhydrous crystalline ascorbic acid 2-glucoside, commercialized by Hayashibara Co., Ltd., Okayama, Japan, was added to each well to give a final concentration of 0.5 or 1 mM, or, as a positive control, CaCl2 was added to each well to give a final concentration of 1 mM; and the cells in each well were cultured at 37° C. for five days while replacing the medium in each well with a fresh preparation of EpiLife medium having the above-identified concentration of ascorbic acid 2-glucoside or CaCl2. Assay for intracellular CE content was carried out in accordance with Tatsuya Hasegawa et al., “Lipids”, Vol. 46, pp. 529 to 535, 2011. After completion of the culture, the culture supernatant in each well was immediately removed, followed by detaching and extracting the cells adhered to the wall of each well by means of pipetting with phosphate buffered saline (PBS, pH 7.4) containing 2% w/v sodium dodecyl sulfate (SDS), and collecting insoluble fractions by centrifugation at 15,000 rpm for 10 min. […] The measured values were regarded as CE production levels. […]

occludin = test: TJ-related protein occludin in NHEK cells (Western); assay type: cell-based, human; details: 1 mM, 3 days, CaCl2 positive control = 100%, no addition 63%
Procedure: (§1) The following experiment was conducted to examine the effect of ascorbic acid 2-glucoside on the production of TJ-related proteins that constitute cell-cell adhesion structures by focusing on occludin and ZO-1 that are focused on as TJ-related proteins known to exist in a granular layer of epidermis: As a model for typical normal human epidermal cells, NHEK cells were suspended in EpiLife medium (pH 7.4); inoculated to 12-well microplates at a cell density of 1×10^5 cells/well; cultured overnight under the conditions of 37° C. and 5% v/v CO2; and further cultured for three days under the conditions of 37° C. and 5% v/v CO2 after adding either CaCl2 as a positive control to each well to give a final concentration of 0.5 mM, or “AA2G”, a product name of a particulate composition containing anhydrous crystalline ascorbic acid 2-glucoside, commercialized by Hayashibara Co., Ltd., Okayama, Japan, to give a final concentration of 0.5 or 1 mM. […] A sample of 20 μg protein for each lane per each cell extract in respective wells was applied to sodium dodecyl sulfate polyacrylamide gel electrophoresis (SDS-PAGE) with 10% w/v SDS containing DTT, followed by assaying the concentration of occludin or ZO-1 in each cell extract with “Luminate Western HRP Substrates”, a product name of a premixed, ready-to-use chemiluminescent detection reagent using an internal standard “α-Tubulin”, commercialized by Merck KGaA, Darmstadt, Germany, wherein there were used “F-11”, a product name of an anti-occludin mouse monoclonal antibody, commercialized by Santa Cruz Biotechnology, Inc., Texas, USA, or “ZO1-1A12”, a product name of a ZO-1 mouse monoclonal antibody, commercialized by Invitrogen Corporation, Calif., USA, was used as a first antibody; and “PO447”, a product name of a horseradish peroxidase (HRPO) labeled anti-mouse IgG, commercialized by DAKO Japan Inc., Tokyo, Japan, or “PO448”, a product name of an HRPO-labeled anti-rabbit IgG, commercialized by DAKO Japan Inc., Tokyo, Japan, as a secondary antibody. […]

ZO-1 = test: TJ-related protein ZO-1 in NHEK cells (Western); assay type: cell-based, human; details: 1 mM, 3 days, CaCl2 positive control = 100%, no addition 38%
Procedure: as §1

glutathione [1] = test: Production level of glutathione in A431 cells; assay type: cell-based, human; details: 0.1 mM, 24 h, control = 100%
Procedure: To Dulbecco's MEM medium, containing 10% v/v calf fetal serum and an antibiotic (abbreviated as “D-MEM”, hereinafter), were added ascorbic acid 2-glucoside, a reagent grade specimen commercialized by Hayashibara Co., Ltd., Okayama, Japan, or L-ascorbic acid, a special reagent grade specimen commercialized by Wako Pure Chemical Industries, Ltd., Tokyo, Japan, […]
Continuously-cultivated A431 cells in D-MEM medium were collected, resuspended in D-MEM medium, inoculated to culture plates with 10 cm in diameter (φ) in an amount of 1×10^6 cells/10 mL/plate, and cultured for 24 hours. Thereafter, the culture supernatants were removed by sucking, and the remaining cells were added with any of the test solutions in an amount of 10 mL/plate and cultured for another 24 hours. As a control, cells were added with only D-MEM medium in an amount of 10 mL/plate and cultured for 24 hours. To each plate, which had been removed its culture supernatant, was added ice-chilled Dulbecco's PBS (−) commercialized by Nissui Pharmaceutical Co., Ltd., Tokyo, Japan, to wash cells, which were then collected with a scraper. Glutathione was quantified with “Glutathione Assay Kit”, a commercially available glutathione assay kit commercialized by BioVision, Inc., San Francisco, USA. In this experiment, the control and test solutions were respectively assayed by using three plates respectively, and the data were averaged for obtaining a glutathione production level for each plate. A5% v/v CO2 incubator was used for culturing A431 cells in any case. Relative values of test samples were determined with the proviso that the production levels of reduced glutathione and total glutathione levels in A431 cells that had been cultured with only D-MEM medium were respectively regarded as 100%, and the results are in Table 4.

A431 cells = test: Cytotoxicity in A431 cell culture; assay type: cell-based, human; details: D-MEM medium, 24 h
glutathione [2] = test: Production level of glutathione in NHEK cells; assay type: cell-based, human; details: 0.1 mM, 24 h, control = 100%
Procedure: Continuously-cultivated NHEK cells in EpiLife medium were collected, resuspended in EpiLife medium, inoculated to culture plates with 10 cm in diameter in an amount of 1×10^6 cells/10 mL/plate, and cultured for 24 hours. Thereafter, each culture supernatant was removed by sucking, and any of the test solutions was added to the remaining cells in a volume of 10 mL/plate, followed by culturing the cells for another 24 hours. As a control, cells were added with only D-MEM medium in an amount of 10 mL/plate and cultured for 24 hours. Each culture supernatant was removed from each plate, then ice-chilled Dulbecco's PBS (−), commercialized by Nissui Pharmaceutical Co., Ltd., Tokyo, Japan, was added to rinse the remaining cells, which were then collected with a scraper. Glutathione was quantified on “Glutathione Assay Kit”, a product name of glutathione assay kit commercialzied by BioVision, Inc., San Francisco, USA. In this experiment, the control and test solutions in respective three plates were assayed for glutathione production level for each plate and averaged for obtaining the glutathione production level of each solution. A 5% v/v CO2 incubator was used for culturing NHEK cells in any case. Relative values of test samples were determined with the proviso that the production levels of reduced glutathione and total glutathione in NHEK cells that had been cultured with only EpiLife medium were respectively regarded as 100%, and the results are in Table 5.

NHEK cells = test: Cytotoxicity in NHEK cell culture; assay type: cell-based, human; details: EpiLife medium, 24 h
B16 cells = test: Cytotoxicity in B16 cell culture; assay type: cell-based, mouse; details: D-MEM medium, 2.0 mM, 2 h

SMILES	OD310nm Value (CE Production level) (cornified envelope (CE))	Occludin concentration in cell extract (occludin) [%]	ZO-1 Concentration in cell extract (ZO-1) [%]	Reduced glutathione (glutathione [1]) [%]	Total glutathione (glutathione [1]) [%]	cytotoxicity (A431 cells; 1.0 mM)	upper limit concentration that does not induce cytotoxicity (A431 cells) [mM]	Reduced glutathione (glutathione [2]) [%]	Total glutathione (glutathione [2]) [%]	cytotoxicity (NHEK cells; 0.5 mM)	upper limit concentration that does not induce cytotoxicity (NHEK cells) [mM]	cytotoxicity (B16 cells)
[Ca+2].[Cl-].[Cl-] [CaCl2, reference compound]	1.07 ± 0.07	100	100									
O=C1O[C@H]([C@@H](O)CO)C(O)=C1O [L-ascorbic acid]				103	102	cytotoxicity was induced	0.1	102	103	cytotoxicity induced	0.1	induced cytotoxicity

From patent US10111822B2, “External dermal composition for anti-ageing and method for producing the same” (Hayashibara Co., Ltd., priority 2012, dated 2018)
